From patent publication US6107104A, “Modulators of anchoring protein function” (ICOS Corporation, priority 1996, dated 2000)
Ends that are not written are not given here.

Tests used:
[1] = system: RII; test: ELISA and modified ELISA, AKAP 79 binding to immobilized RII
Description: (§1) Specifically, in the first method, recombinant CaN A, expressed as described above, was added to wells of Immulon plates (Dynatech) in a 35 mM sodium bicarbonate/15 mM sodium carbonate buffer, pH 9.6. Proteins bound to the surface of the wells by plastic/protein interaction. As a positive control, RII, and a negative control, bovine serum albumin (BSA) were separately and similarly captured in individual wells and assayed in this method. Nonspecific sites in the wells were blocked with a buffer containing 2.5% milk in 50 mM sodium citrate and 145 mM sodium chloride. Full length TRX-AKAP 79 was added in a final volume of 100 μl and after up to 2 hours incubation, free and non-specific proteins were removed with several washes with PBS/0.5% Tween 20. A mouse anti-AKAP 79 monoclonal antibody, generated against recombinant AKAP 79, was added to each well, followed by addition of a horse radish peroxidase (HRP)-conjugated goat anti-mouse antibody. HRP substrate tetramethylbenzidine (TMB) was added and absorbance at 450 nm determined using a Dynatech 96 well plate reader.
(§2) In the modified ELISA, standard ELISA techniques were employed except that HRP-conjugated streptavidin was used to detect bound biotinylated AKAP 79 instead of an anti-AKAP 79 monoclonal antibody. Briefly, after incubation of immobilized CaN A with biotinylated AKAP 79, HRP-conjugated streptavidin was added for 30 minutes. Unbound protein was removed with multiple washes of PBS/0.05% Tween 20. Bound streptavidin was detected with HRP substrate TMB and absorbance measured at 450 nm using a Dynatech 96 well plate reader. As in the ELISA described above, RII was immobilized and assayed as a positive control, and BSA as a negative control.

[2] = target: T1, CaN A (Rattus norvegicus, UniProt P63329); test: ELISA and modified ELISA, AKAP 79 binding to immobilized CaN A
T1 construct: the deletion mutant form of CaN A is used in the assays described above in place of full length CaN A; made in house; host or cells: Sf9 cells (baculovirus); construct from Vollum Institute
Description: Two different capture methods were used. In one method, CaN A was first captured on plates by passive coating, AKAP 79 or biotinylated AKAP 79 was added, and complex formation detected by either ELISA or by streptavidin-HRP. In another method, rabbit anti-mouse antibodies were first captured on plates, mouse anti-TRX antibodies added and captured, and TRX-AKAP 79 added and captured. This method was similar to the capture method used for AKAP 79/^3 H-RII SPA. Biotinylated CaN A was then added, and the complex detected by streptavidin-HRP.
as §1
as §2, with “Unbound protein was removed with multiple washes of PBS/0.05% Tween 20.” left out, “As in the ELISA described above, RII was immobilized and assayed as a positive control, and BSA as a negative control.” left out

[3] = target: T2, CaN (Rattus norvegicus, UniProt P63329); test: CaN phosphatase activity toward 32P RII peptide substrate; assay type: biochemical; settings: Ca2+/calmodulin dependent CaN 30 nM, 32P RII peptide substrate
T2 construct: made in house; host or cells: Sf9 cells (baculovirus)
Description: (§3) To determine whether AKAP 79 peptide binding inhibits CaN activity, CaN phosphatase activity was assayed in the presence of recombinant AKAP 79. Briefly, recombinant AKAP 79 was expressed in E. coli as described in Carr et al., J. Biol. Chem., 267:16816-16823 (1992), incorporated herein by reference. CaN and the constitutively active truncation mutant CaN420 (a truncated, Ca^2+ /calmodulin independent constitutively active form of CaN (Perrino et al., J. Biol. Chem., in press)) were expressed in Sf9 cells and purified on calmodulin-Sepharose as described in Perrino et al., J. Biol Chem., 267:15965-15969 (1992), incorporated herein by reference. Phosphatase activity toward ^32 P RII peptide substrate was measured as described in Perrino et al., supra. CaN (30 nM), calmodulin (100 nM) and ^32 P RII peptide (22 μM) were incubated with AKAP 79 protein and AKAP 79 peptide (SEQ ID NO:1-amino acids 81-102) over the range of concentrations indicated in FIG. 1B. Calmodulin was omitted from CaN420 assays. ^32 P released from the substrate was measured in triplicate samples in three separate experiments by scintillation counting. The inhibition constant (Ki) of recombinant AKAP 79 for CaN was determined by linear regression analysis of data. Ki values for AKAP 79 peptide were estimated by determining the IC50 using a fixed substrate concentration at Km (42 μM).

[4] = target: T3, CaN420 (Rattus norvegicus, UniProt P63329); test: CaN420 phosphatase activity toward 32P RII peptide substrate; assay type: biochemical; settings: calmodulin omitted
T3 construct: a truncated, Ca^2+ /calmodulin independent constitutively active form of CaN; made in house; host or cells: Sf9 cells (baculovirus)
Description: as §3

[5] = system: IL-2 transcription in Jurkat T cell line (NFATZ); test: NFATZ Jurkat IL-2 promoter lacZ β-gal FACS assay; assay type: cell-based
From the text: IL- 2 transcription was studied following activation with PMA and ionomycin. These two agents are known respectively to potentiate protein kinase C and calcium second messenger responses (including activation of CaN). Protein kinase C activates the Ras-Raf-1-Mek-MAP Kinase pathway that participates in induction of the nuclear component of NFAT. The increased calcium concentration activates calcineurin which, in turn, activates the cytoplasmic component of NFAT and allows translocation to the nucleus.
Each of the peptides was myristilated as described in Eichholtz et al., J. Biol. Chem., 268:1982-1986 (1993).
Incubation with forskolin/IBMX elevates intracellular cAMP concentrations (FIG. 4), thereby activating PKA. Finally, phorbol 12-myristate 13-acetate (PMA) (10 ng/ml) and ionomycin (2 μM) were added and incubations continued for 4 hr. Controls were incubated with PMA/ionomycin alone or forskolin/IBMX and PMA/ionomycin under conditions as described above. During the last 20 min of the PMA/ionomycin incubation, chloroquine (300 μM) was added to inhibit endogenous lysosomal β-gal activity. The cells were spun out and resuspended in 50 μl of culture medium to which 50 μl of fluorescein di-β-D-galactopyranoside (FDG) was added (0.1 mM final concentration; Molecular Probes). […] The lacZ β-gal activity was measured by flow cytometry configured for fluorescein analysis.

[6] = target: AKAP 79/RII binding; test: Scintillation proximity assay of TRX-AKAP 79/3H-RII binding; settings: read-out: IC50 of inhibition of AKAP 79/RII binding
From the text: Initially, a thioredoxin TRX-AKAP 79 fusion protein expression plasmid was constructed. See, generally, LaVallie, et al., BIO/TECHNOLOGY 11:187-193 (1993). Briefly, a XhaI/HindIII thioredoxin fragment was subcloned into pUC 19 containing a lac Z gene and a tacZ promoter. The resulting plasmid was designated TRX F/S pUC19. In order to insert an AKAP 79 encoding sequence into TRX F/S pUC19, an NcoI site was created with an oligonucleotide (SEQ ID NO:32) having terminal SpeI and HindIII sequences. Following SpeI/HindIII digestion, the oligonucleotide was inserted into the vector and an NcoI/XhoI fragment encoding AKAP 79 was ligated in frame with the thioredoxin gene. The fusion protein was expressed in E. coli and immobilized on 96-well ScintiStrip plates (Wallac, Turbu, Finland) which contained a scintillator embedded in the solid support. […] When ^3 H-RII bound to AKAP 79, the label was brought sufficiently close to the support-embedded scintillator, resulting in emission detected in a MicroBeta scintillation counter.
The scintillation proximity assay (SPA) screening protocol described in Example 8 was employed to determine the ability of various chemicals to inhibit binding between AKAP 79 and ^3 H-RII. […] Percent binding was determined by the measuring the amount of radioactivity in each well compared to the amount of radioactivity in wells wherein only AKAP 79 and ^3 H-RII were introduced.

[7] = system: PKC; test: PKC activity assay with EGF receptor peptide substrate; assay type: biochemical
Description: In order to asses the ability of these peptides to modulate PKC activity, the following assay was performed in the presence and absence of AKAP 79 peptide fragments. PKC [50 nM dissolved in 50 mM tris-HCl (pH 7.4), 5 mM MgCl2 1.2 mM CaCl2, 1 mM DTT, 1 mM EGTA and 100 μg/ml PS] was incubated with EGF receptor peptide substrate (5 μM) at 30° C. for five minutes. Phosphorylation reaction was initiated by addition of 100 μM ^32 P-ATP (500 cpm/pmol) and the reaction allowed to proceed for ten minutes at 30° C. Aliquots of reaction mixture were removed and spotted into P81 filter paper and the reaction terminated by washing the filter paper with excess 75 mM phosphoric acid (three washes for three minutes each). After a final wash in ethanol, the p81 filters were dried and radioactivity was measured by liquid scintillation counting.

[8] = system: PKC/AKAP 79 interaction; test: PKC overlay assay; assay type: binding, rabbit
Description: In order to determine if the 75 kDa protein identified may be the bovine homolog of AKAP 79, the PKC overlay assay was used to probe AKAP 79 and related fragments. Briefly, proteins were separated by SDS-polyacrylamide electrophoresis (SDS-PAGE) and blotted to nitrocellulose following standard protocols. Samples were blocked in Blotto [1 mg/ml bovine serum albumin (BSA), 5% dry milk in Tris-buffered saline (TBS)] and incubated for one hour at room temperature in assay buffer [TBS containing 1 mg/ml BSA, 1.2 mM calcium, 1 mM EGTA, 20 μg/ml phosphatidylserine (PS), 2 μg/ml leupeptin, 2 μg/ml pepstatin and 3 μg/ml of partially purified rabbit brain PKC]. Bound PKC was detected with monoclonal antibody M7, which recognizes both PKCα and β, following standard chemiluminescent detection methods.

Q: With “AKAP 79/M108: biotinylated AKAP 79 truncation, first 108 amino terminal residues deleted” as the substance, how does the “recognition of immobilized RII” value [1] read?
A: specifically recognized

Q: With “AKAP 79/Met159: biotinylated AKAP 79 truncation, first 159 amino terminal amino acids deleted” as the substance, how does the “binding to immobilized CaN A” value [2] read?
A: no specific binding

Q: And the “recognition of immobilized RII” value [1]?
A: specifically recognized

Q: How did the “binding to immobilized CaN A” value [2] turn out when “AKAP 79/Met247: biotinylated AKAP 79 truncation, first 247 amino terminal amino acids deleted” was run?
A: no specific binding

Q: What about the “recognition of immobilized RII” value [1] of the same substance?
A: specifically recognized

Q: Which “inhibition of full-length CaN phosphatase activity” value [3] does the source give for “AKAP 79: recombinant anchoring protein AKAP 79 expressed in E. coli” here?
A: non-competitive manner

Q: And the “binding to immobilized CaN A” value [2]?
A: bound

Q: What about the “inhibition of CaN420 phosphatase activity” value [4] of the same substance?
A: non-competitive manner

Q: For “Asp-Leu-Ile-Glu-Glu-Ala-Ala-Ser-Arg-Ile-Val-Asp-Ala-Val-Ile-Glu-Gln-Val-Lys-Ala-Ala-Gly-Ala-Tyr (DLIEEAASRIVDAVIEQVKAAGAY; also: myristoylated, place not given here) [myristilated Ht31 peptide, amino acids 493-515 of the full length Ht31 protein, myristilated]”, which “reversal of forskolin/IBMX blockade of PMA/ionomycin induced β-gal activity” value ([5]; 100 μM myristilated peptide) is on record?
A: completely reversed

Q: For “Ht31 peptide: Ht31 peptide (SEQ ID NO:4), blocks anchoring protein binding to RII (DLIEEAAVSRIVDAVIEEVKAAGA) [reference compound]”, which “inhibition of full-length CaN phosphatase activity” value [3] is on record?
A: not an inhibitor

Q: And the IC50 [6]?
A: 50 nM

Q: With “myristilated AKAP 75 peptide: myristilated peptide of amino acids 81-108 of AKAP 75 (SEQ ID NO:8) (SIKRLVTRRKRSESSKQQKPFKAKLQSE; also: myristoylated, place not given here)” as the substance, how does the “reduction of PMA/ionomycin induced β-gal activity” value ([5]; 10 μM in the medium) read?
A: 40-50%

Q: Which “effect of incubation with CaM on inhibition of PKC” value ([7]; CaM 15 μM, excess Ca2+) does the source give for “peptide containing residues 31-52: synthetic peptide of residues 31-52 of AKAP 79 (KASMLCFKRRKKAAKALKPKAG; UniProt P24588 31-52, looked up, fragment)” here?
A: prevented inhibition

Q: And the “type of inhibition of PKC activity” value ([7]; EGF receptor peptide as substrate)?
A: mixed inhibition

Q: And the IC50 ([7]; read-out: IC50 of inhibition of PKC activity)?
A: 2000 nM

Q: And the “block of PKC/AKAP 79 interaction” value [8]?
A: blocked

Q: Which IC50 [6] does the source give for “unlabeled RII: unlabeled RII regulatory subunit of PKA, reference inhibitor” here?
A: 1 nM
